Like-named read-outs stand apart in the source and are kept apart here.
Tests used:
rnADAMTS-5 (1-564-6H) = rnADAMTS-5 (1-564-6H) (Rattus norvegicus, UniProt Q6TY19); conditions: read-out: Rat ADAMTS-5 potency IC50
human ADAMTS-5 [1] = target: T1, human ADAMTS-5 (Homo sapiens (Human), UniProt Q9UNA0); conditions: read-out: hADAMTS-5 potency IC50
Method: Finally, the fluorescence is read on the Envision (Perkin Elmer) after an incubation of 90 min at 37° C.

human TACE = human TACE (Homo sapiens (Human), UniProt P78536); conditions: read-out: TACE potency IC50
human MMP13 [2] = target: T2, human MMP13 (Homo sapiens (Human), UniProt P45452); conditions: read-out: hMMP-13 potency IC50
Method: Human MMP13 is preactivated by incubated the enzyme in the same buffer complemented with 1 mM freshly prepared p-Aminophenylmercuric acetate (AMPA) for 1 hour at 37° C.

human MMP14 = human MMP14 (Homo sapiens (Human), UniProt P50281); conditions: read-out: hMMP-14 potency IC50
human MMP13 [3] = target: T2, human MMP13; conditions: read-out: hMMP-13 potency IC50; remark: listed apart in the source
Method: The reaction is initiated by adding to the assay plate 520 MMP-fret substrate XV (10 μL, 4 μM) in the same buffer.

human ADAMTS-5 [4] = target: T1, human ADAMTS-5; conditions: read-out: hADAMTS-5 potency IC50; remark: listed apart in the source

Chain of human TACE (P78536 whole entry, looked up, change not shown): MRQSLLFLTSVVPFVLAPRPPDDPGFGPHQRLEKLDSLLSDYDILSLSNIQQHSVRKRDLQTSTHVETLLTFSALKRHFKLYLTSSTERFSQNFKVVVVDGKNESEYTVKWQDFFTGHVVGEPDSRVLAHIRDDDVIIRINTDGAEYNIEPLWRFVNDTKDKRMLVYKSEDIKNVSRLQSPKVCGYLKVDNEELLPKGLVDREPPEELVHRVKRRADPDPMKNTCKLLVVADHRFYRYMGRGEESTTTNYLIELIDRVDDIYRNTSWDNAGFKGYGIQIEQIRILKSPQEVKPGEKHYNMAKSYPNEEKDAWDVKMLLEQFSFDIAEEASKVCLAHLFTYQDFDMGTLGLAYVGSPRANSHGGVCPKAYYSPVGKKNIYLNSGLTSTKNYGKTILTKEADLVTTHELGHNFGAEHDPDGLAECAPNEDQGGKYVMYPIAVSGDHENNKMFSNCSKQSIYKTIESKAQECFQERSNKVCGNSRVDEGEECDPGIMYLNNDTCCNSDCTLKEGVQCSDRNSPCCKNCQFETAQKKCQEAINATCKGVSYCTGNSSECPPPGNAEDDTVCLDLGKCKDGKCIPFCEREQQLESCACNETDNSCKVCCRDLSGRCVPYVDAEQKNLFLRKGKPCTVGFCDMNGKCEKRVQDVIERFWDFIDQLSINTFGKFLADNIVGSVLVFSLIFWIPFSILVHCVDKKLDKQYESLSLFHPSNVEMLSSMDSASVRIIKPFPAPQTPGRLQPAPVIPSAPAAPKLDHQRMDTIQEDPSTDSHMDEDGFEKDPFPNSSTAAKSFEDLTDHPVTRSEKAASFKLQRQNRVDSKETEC
T1 sequence (Q9UNA0 262-930): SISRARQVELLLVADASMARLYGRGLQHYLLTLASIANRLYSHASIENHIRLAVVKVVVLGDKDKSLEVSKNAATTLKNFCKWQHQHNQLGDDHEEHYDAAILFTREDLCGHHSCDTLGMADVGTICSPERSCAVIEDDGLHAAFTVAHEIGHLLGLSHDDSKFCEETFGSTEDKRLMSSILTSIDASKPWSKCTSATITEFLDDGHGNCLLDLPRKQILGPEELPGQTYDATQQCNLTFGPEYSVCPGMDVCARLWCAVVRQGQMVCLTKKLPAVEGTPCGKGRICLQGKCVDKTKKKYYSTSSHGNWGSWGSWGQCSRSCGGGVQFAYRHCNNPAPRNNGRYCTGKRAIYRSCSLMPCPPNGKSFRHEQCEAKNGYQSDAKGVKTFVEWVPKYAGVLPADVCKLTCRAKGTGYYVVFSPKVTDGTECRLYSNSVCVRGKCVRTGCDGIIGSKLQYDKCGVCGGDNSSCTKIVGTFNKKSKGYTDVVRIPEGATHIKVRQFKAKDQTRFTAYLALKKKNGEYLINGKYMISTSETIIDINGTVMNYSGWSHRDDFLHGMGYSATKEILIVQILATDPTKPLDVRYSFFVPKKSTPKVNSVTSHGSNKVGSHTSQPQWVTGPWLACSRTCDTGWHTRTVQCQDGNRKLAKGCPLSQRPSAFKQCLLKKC

SMILES	IC50 (rnADAMTS-5 (1-564-6H))	IC50 (human ADAMTS-5 [1])	IC50 (human TACE)	IC50 (human MMP13 [2])	IC50 (human MMP14)	IC50 (human MMP13 [3])	IC50 (human ADAMTS-5 [4])
CC(CC1(CCS(C)(=O)=O)NC(=O)NC1=O)C(=O)N1CCN(c2cc(Cl)cc(Cl)c2)CC1 (stereo not shown) [Cpd 218, 5-[3-[4-(3,5-dichlorophenyl)piperazin-1-yl]-2-methyl-3-oxo-propyl]-5-(2-methylsulfonylethyl)imidazolidine-2,4-dione]	17 nM	20 nM	272 nM	2220 nM	1310 nM	–	–
CC1(CCC(=O)N2CCN(c3ccccc3)CC2)NC(=O)NC1=O (stereo not shown) [compound 1, 5-methyl-5-[3-oxo-3-(4-phenylpiperazin-1-yl)propyl]imidazolidine-2,4-dione]	730 nM	–	> 20000 nM	–	–	> 20000 nM	–
O=C1NC(=O)C(CCC(=O)N2CCN(c3cccc(Cl)c3)CC2)(c2ccccc2)N1 (stereo not shown) [compound 6, 5-[3-[4-(3-chlorophenyl)piperazin-1-yl]-3-oxo-propyl]-5-phenyl-imidazolidine-2,4-dione]	107 nM	–	2360 nM	–	–	2150 nM	–
Cc1ccccc1N1CCN(C(=O)CCC2(C)NC(=O)NC2=O)CC1 (stereo not shown) [compound 12, 5-methyl-5-[3-[4-(o-tolyl)piperazin-1-yl]-3-oxo-propyl]imidazolidine-2,4-dione]	1160 nM	–	> 4000 nM	–	–	> 20000 nM	–
Cc1ccccc1N1CCN(C(=O)CC[C@@]2(c3ccccc3)NC(=O)NC2=O)CC1 [compound 27, (5S)-5-[3-[4-(o-tolyl)piperazin-1-yl]-3-oxo-propyl]-5-phenyl-imidazolidine-2,4-dione]	124 nM	–	> 2000 nM	> 20000 nM	> 20000 nM	–	90 nM
Cc1ccc(Cl)cc1N1CCN(C(=O)CCC2(C3CC3)NC(=O)NC2=O)CC1 (stereo not shown) [compound 36, 5-[3-[4-(5-chloro-2-methyl-phenyl)piperazin-1-yl]-3-oxo-propyl]-5-cyclopropyl-imidazolidine-2,4-dione]	29 nM	–	670 nM	> 20000 nM	> 20000 nM	–	34 nM
CC1(CCC(=O)N2CCN(c3cc(Cl)cc(Cl)c3)CC2)NC(=O)NC1=O (stereo not shown) [compound 40, 5-[3-[4-(3,5-dichlorophenyl)piperazin-1-yl]-3-oxo-propyl]-5-methyl-imidazolidine-2,4-dione]	234 nM	–	2720 nM	> 20000 nM	> 20000 nM	–	–
Cc1ccc(F)cc1N1CCN(C(=O)CCC2(C)NC(=O)NC2=O)CC1 (stereo not shown) [compound 51, 5-[3-[4-(5-fluoro-2-methyl-phenyl)piperazin-1-yl]-3-oxo-propyl]-5-methyl-imidazolidine-2,4-dione]	508 nM	–	> 3660 nM	–	> 20000 nM	–	–
O=C1NC(=O)C(CCC(=O)N2CCN(c3cc(Cl)cc(Cl)c3)CC2)(C2CC2)N1 (stereo not shown) [compound 55, 5-cyclopropyl-5-[3-[4-(3,5-dichlorophenyl)piperazin-1-yl]-3-oxo-propyl]imidazolidine-2,4-dione]	37 nM	–	> 3310 nM	> 20000 nM	> 20000 nM	–	–
O=C1NC(=O)[C@](CCC(=O)N2CCN(c3cc(Cl)cc(Cl)c3)CC2)(C2CC2)N1 [compound 173, (5S)-5-cyclopropyl-5-[3-[4-(3,5-dichlorophenyl)piperazin-1-yl]-3-oxo-propyl]imidazolidine-2,4-dione]	21 nM	22 nM	3140 nM	> 20000 nM	> 20000 nM	–	–
C[C@H]1CN(C(=O)CC[C@@]2(C3CC3)NC(=O)NC2=O)CCN1c1cccc(F)c1 [compound 203, (5S)-5-cyclopropyl-5-[3-[(3S)-4-(3-fluorophenyl)-3-methyl-piperazin-1-yl]-3-oxo-propyl]imidazolidine-2,4-dione]	26 nM	46 nM	> 20000 nM	> 20000 nM	> 4000 nM	–	–
C[C@H]1CN(C(=O)CC[C@@]2(C3CC3)NC(=O)NC2=O)CCN1c1cc(Cl)cc(Cl)c1 [compound 204, (5S)-5-cyclopropyl-5-[3-[(3S)-4-(3,5-dichlorophenyl)-3-methyl-piperazin-1-yl]-3-oxo-propyl]imidazolidine-2,4-dione]	11 nM	16 nM	3870 nM	> 12000 nM	> 20000 nM	–	–
C[C@H]1CN(C(=O)CC[C@@]2(C3CC3)NC(=O)NC2=O)CCN1c1ccc(F)c(F)c1 [compound 205, (5S)-5-cyclopropyl-5-[3-[(3S)-4-(3,4-difluorophenyl)-3-methyl-piperazin-1-yl]-3-oxo-propyl]imidazolidine-2,4-dione]	27 nM	26 nM	> 20000 nM	> 20000 nM	> 4000 nM	–	–
CC(CC1(CCN)NC(=O)NC1=O)C(=O)N1CCN(c2cc(Cl)cc(Cl)c2)CC1 (stereo not shown) [compound 210, 5-(2-aminoethyl)-5-[3-[4-(3,5-dichlorophenyl)piperazin-1-yl]-2-methyl-3-oxo-propyl]imidazolidine-2,4-dione]	105 nM	108 nM	1440 nM	> 14700 nM	> 20000 nM	–	–
CC(CC1(C)NC(=O)NC1=O)C(=O)N1CCN(c2cccc(Cl)c2)[C@@H](C)C1 (stereo partly drawn) [compound 214, 5-[3-[(3S)-4-(3-chlorophenyl)-3-methyl-piperazin-1-yl]-2-methyl-3-oxo-propyl]-5-methyl-imidazolidine-2,4-dione]	30 nM	61 nM	> 4000 nM	> 3510 nM	1230 nM	–	–
CC(CC1(C)NC(=O)NC1=O)C(=O)N1CCN(c2cccc(F)c2)[C@@H](C)C1 (stereo partly drawn) [compound 215, 5-[3-[(3S)-4-(3-fluorophenyl)-3-methyl-piperazin-1-yl]-2-methyl-3-oxo-propyl]-5-methyl-imidazolidine-2,4-dione]	18 nM	37 nM	> 12000 nM	> 4000 nM	2600 nM	–	–
CC(CC1(C)NC(=O)NC1=O)C(=O)N1CCN(c2ccccc2)[C@@H](C)C1 (stereo partly drawn) [compound 217, 5-methyl-5-[2-methyl-3-[(3S)-3-methyl-4-phenyl-piperazin-1-yl]-3-oxo-propyl]imidazolidine-2,4-dione]	49 nM	59 nM	> 4000 nM	> 4000 nM	> 4000 nM	–	–
CC(CC1(C2CN(C(=O)OC(C)(C)C)C2)NC(=O)NC1=O)C(=O)N1CCN(c2ccc(F)c(F)c2)CC1 (stereo not shown) [compound 234, tert-butyl 3-[4-[3-[4-(3,4-difluorophenyl)piperazin-1-yl]-2-methyl-3-oxo-propyl]-2,5-dioxo-imidazolidin-4-yl]azetidine-1-carboxy late]	–	28 nM	> 4000 nM	5.6 nM	7 nM	–	–
CC(CC1(CCNC(=O)OC(C)(C)C)NC(=O)NC1=O)C(=O)N1CCN(c2ccc(F)c(F)c2)CC1 (stereo not shown) [compound 235, tert-butyl N-[2-[4-[3-[4-(3,4-difluorophenyl)piperazin-1-yl]-2-methyl-3-oxo-propyl]-2,5-dioxo-imidazolidin-4-yl]ethyl]carbamate]	–	16 nM	1320 nM	21.2 nM	26 nM	–	–
CC(CC1(CN2CCOCC2)NC(=O)NC1=O)C(=O)N1CCN(c2cc(Cl)cc(Cl)c2)CC1 (stereo not shown) [compound 242, 5-[3-[4-(3,5-dichlorophenyl)piperazin-1-yl]-2-methyl-3-oxo-propyl]-5-(morpholinomethyl)imidazolidine-2,4-dione]	57 nM	66 nM	2520 nM	> 20000 nM	> 20000 nM	–	–
CC(CC1(C2CNC2)NC(=O)NC1=O)C(=O)N1CCN(c2ccc(F)c(F)c2)[C@@H](C)C1 (stereo partly drawn) [compound 247, 5-(azetidin-3-yl)-5-[3-[(3S)-4-(3,4-difluorophenyl)-3-methyl-piperazin-1-yl]-2-methyl-3-oxo-propyl]imidazolidine-2,4-dione]	–	95 nM	> 19600 nM	> 20000 nM	> 4000 nM	–	–
CC(=O)N1CC(C2(CC(C)C(=O)N3CCN(c4ccc(F)c(F)c4)[C@@H](C)C3)NC(=O)NC2=O)C1 (stereo partly drawn) [compound 249, 5-(1-acetylazetidin-3-yl)-5-[3-[(3S)-4-(3,4-difluorophenyl)-3-methyl-piperazin-1-yl]-2-methyl-3-oxo-propyl]imidazolidine-2,4-dione]	34 nM	36 nM	> 19600 nM	> 4000 nM	1230 nM	–	–
COC(CC1(C)NC(=O)NC1=O)C(=O)N1CCN(c2cc(F)cc(Cl)c2)[C@@H](C)C1 (stereo partly drawn) [compound 295, 5-[3-[(3S)-4-(3-chloro-5-fluoro-phenyl)-3-methyl-piperazin-1-yl]-2-methoxy-3-oxo-propyl]-5-methyl-imidazolidine-2,4-dione]	71 nM	115 nM	> 20000 nM	–	3460 nM	–	–
CC(CC1(C2CC2)NC(=O)NC1=O)C(=O)N1CCN(c2cncc(Cl)c2)[C@@H](C)C1 (stereo partly drawn) [compound 314, 5-[3-[(3S)-4-(5-chloro-3-pyridyl)-3-methyl-piperazin-1-yl]-2-methyl-3-oxo-propyl]-5-cyclopropyl-imidazolidine-2,4-dione]	34 nM	24 nM	> 4000 nM	–	> 20000 nM	–	–
C[C@H]1CN(C(=O)CCC2(c3cocn3)NC(=O)NC2=O)CCN1c1cc(F)cc(Cl)c1 (stereo partly drawn) [compound 388, 5-[3-[(3S)-4-(3-chloro-5-fluoro-phenyl)-3-methyl-piperazin-1-yl]-3-oxo-propyl]-5-oxazol-4-yl-imidazolidine-2,4-dione]	74 nM	57 nM	> 4000 nM	–	549 nM	–	–

— patent publication US9926281B2 (priority 2014, dated 2018)
